Legend:
[1] = system: wild-type or IDH1-R132H heterozygous astrocytes; experiment: Short-term growth delay assay, astrocytes; type: cell-based, Human; details: for sensitization of IDH1-mutant versus WT cells to single DNA damaging agent: FIG. 6A, single agents
Experimental: Cells were plated in 96-well black-walled plates (Costar) at a concentration of 2.5 k/well and allowed to adhere at room temperature for 60 minutes prior to return to the incubator. […] For synergy experiments, cells were replica-plated and drugs added in single wells at the indicated concentrations. At 96 hours after the addition of drugs, cells were washed in PBS, fixed in 70% ethanol, and stained with Hochst at 1 μg/mL. The plates were then imaged on a Cytation 3 automated imager (BioTek), and cells were counted using CellProfiler (cellprofiler.org/). Each experiment was performed three times and values from a representative experiment are reported as mean±SEM. For synergy experiments, experiments were analyzed for synergistic interactions using Combenefit (www.cruk.cam.ac.uk/research-groups/jodrell-group/combenefit).

[2] = system: homologous recombination (HR) in U2OS DR-GFP cells; experiment: U2OS DR-GFP chromosomal HR reporter assay; type: cell-based; details: for suppression of HR: after 10 days of culture in 300 μM octyl-(R)-2-hydroxyglutarate vs DMSO
Experimental: These reporter assays are carried out as previously described ([…] et al., Molecular cancer research: MCR 13, 1389-1397 (2015)). Briefly, after 10 days of culture in (2R)-Octyl-alpha-hydroxyglutarate (Cayman), 1×10^6 cells were transfected in triplicate with 4 μg pI-SceI using the Amaxa Nucleofector II and Nucleofection Kit V (Lonza) per manufacturer's protocol. 72 h after transfection, cells were analyzed for GFP expression using flow cytometry, and the data was analyzed using FlowJo software to calculate %GFP positive cells. Values reported are mean±SEM.

[3] = system: wild-type and IDH1-R132H heterozygous HCT116 cells; experiment: Short-term growth delay assay, HCT116; type: cell-based, Human
Experimental: Cells were plated in 96-well black-walled plates (Costar) at a concentration of 2.5 k/well and allowed to adhere at room temperature for 60 minutes prior to return to the incubator. For growth delay assays containing octyl-(R)-2HG, cells were cultured with indicated concentration for 10 days prior to plating. 24 hours later, the media was changed and indicated drugs dissolved in either DMSO or DMF (cisplatin only) were added in quadruplicate at varying concentrations. For synergy experiments, cells were replica-plated and drugs added in single wells at the indicated concentrations. At 96 hours after the addition of drugs, cells were washed in PBS, fixed in 70% ethanol, and stained with Hochst at 1 μg/mL. The plates were then imaged on a Cytation 3 automated imager (BioTek), and cells were counted using CellProfiler (cellprofiler.org/). Each experiment was performed three times and values from a representative experiment are reported as mean±SEM. For synergy experiments, experiments were analyzed for synergistic interactions using Combenefit (www.cruk.cam.ac.uk/research-groups/jodrell-group/combenefit).

[4] = system: IDH1-WT U2OS DR-GFP cells; experiment: Neutral comet assay, U2OS; type: cell-based; details: 24 h exposure to DMOG
Experimental: (§1) Neutral comet assays were performed per manufacturer's protocol (Trevigen). Briefly, cells were trypsinized, washed with PBS and suspended in LM Agarose (Trevigen). Neutral electrophosesis was conducted at 21V for 1 hour in the CometAssay Electrophoresis System (Trevigen). Data were collected with an EVOS FL microscope (Advanced Microscopy Group) and analyzed using AutoComet software (TriTek Corporation). For each experiment, three biological replicates each with >50 cells were measured, and reported values are mean±SEM.

[5] = system: WT and R132H/+ HCT116 cells; experiment: Neutral comet assay, HCT116; type: cell-based, Human
Experimental: as §1

[6] = system: wild-type or IDH1-R132H heterozygous astrocytes; experiment: Long-term colony forming (clonogenic survival) assay, astrocytes; type: cell-based, Human; details: FIG. 2B
Experimental: (§2) Cells were counted and diluted in media containing various concentration of drug. They were then immediately seeded in 6-well plates in triplicate at 3-fold dilutions, ranging from 9000 to 37 cells per well. These plates were kept in the incubator for 10 to 14 days, following which they were washed in PBS, stained with Crystal Violet, and quantified. Each experiment was performed twice, and values reported are mean ±standard deviation.

[7] = system: wild-type or IDH1-R132H heterozygous HCT116 cells; experiment: Long-term colony forming assay, HCT116; type: cell-based, Human; details: FIG. 5E; at 10 nM BMN-673
Experimental: as §2

[8] = system: HCT116 IDH1-WT and -mutant tumors; experiment: In vivo BMN 673 efficacy study, subcutaneous flank xenografts; design: species or system nude mice; details: BMN-673 0.33 mg/kg oral gavage once daily for 21 days vs vehicle
Experimental: All animal experiments were performed in compliance with our institution's IACUC committee. Four week-old female athymic nu/nu mice were used for all in vivo xenograft studies. Mice were quarantined for at least 1 week before experimental manipulation. Human HCT116 cells (with and without IDH1 mutation) were implanted subcutaneously (3-5×10^6 cells in 0.1 cc PBS) in the right flank of nude mice. When tumors reached an average volume of approximately 100 mm^3, mice were randomized into various treatment groups (5-7 mice/group) in each study. Animals were not randomized, but were grouped based on tumor size such that tumors were roughly equivalent in size when treatment was begun. The investigator was not blinded throughout the experiment. Mice were visually observed daily and tumors were measured three times per week by calipers to determine tumor volume using the formula: […]
BMN 673 was solubilized in DMSO and diluted with PBS containing 10% dimethylacetamide (Sigma-Aldrich) and 6% Solutol (Sigma-Aldrich). […] Tumor tripling time was calculated as the time required for tumors to increase in volume threefold over baseline at the time of treatment initiation. P-values were determined by Mann-Whitney U test (Stata). Kaplan-Meier curves were generated with survival fraction determined by the number of mice alive with tumor volume smaller than three times the initial pre-treatment volume. […]

Compound: COS(C)(=O)=O [MMS, Methyl methanesulfonate]
- sensitization of IDH1-mutant versus WT cells to single DNA damaging agent [1]: modest, but detectable sensitization

Compound: (2R)-octyl-α-hydroxyglutarate [octyl-(R)-2-hydroxyglutarate]
- suppression of HR ([2]; FIG. 1I): comparable in magnitude to RAD51 or BRCA2 suppression by siRNA knockdown

Compound: O=C(O)CCC(O)C(=O)O (stereo not drawn) [2-HG, 2-hydroxyglutarate]
- PARP inhibitor (BMN-673) sensitivity of WT cells after 2-HG treatment ([3]; FIGS. 2C-2D, wild-type HCT116, octyl-(R)-2HG with 300 nM BMN-673, or 900 μM octyl-(R)-2HG with BMN-673 dose response): recapitulate the enhanced PARP inhibitor sensitivity seen in IDH1-mutant cells
- ability of treatment alone to reproduce the IDH1-associated HR defect ([2]; FIG. 1I, FIGS. 3H-3I, wild-type cells): recapitulate the IDH1-associated HR defect
- suppression of HR ([2]; FIG. 1I): dramatic, and it approached levels seen with siRNAs targeting two key HR genes, RAD51 and BRCA2

Compound: COC(=O)CNC(=O)C(=O)OC [DMOG, dimethyloxalylglycine]
- HR activity ([2]; 24 h pretreatment with DMOG): dose dependent HR suppression
- baseline DSBs [4]: dose dependent increase in baseline DSBs

Compound: CCc1c2c(nc3ccc(OC(=O)N4CCC(N5CCCCC5)CC4)cc13)-c1cc3c(c(=O)n1C2)COC(=O)[C@]3(O)CC [irinotecan]
- sensitization of IDH1-mutant versus WT cells to single DNA damaging agent [1]: modest, but detectable sensitization

Compound: N.N.[Cl][Pt][Cl] [cisplatin]
- synergy between BMN-673 and cisplatin ([1]; FIG. 2F, 8 nM BMN-673 and 1 cisplatin, IDH1 wild-type vs IDH1-R132H astrocytes): IDH1-R132H-dependent synergy
- sensitization of IDH1-mutant versus WT cells to single DNA damaging agent [1]: modest, but detectable sensitization
- synergistic interaction with BMN-673 in IDH1-mutant tumor cells ([1]; FIGS. 2E-F, 6B (cisplatin, astrocytes), FIG. 6C (TMZ, IDH1-R132H HCT116), Combenefit analysis): dramatic synergistic interaction

Compound: O=[N+]([O-])c1cc([N+](=O)[O-])c(/C=C/c2ccc(Cl)c(Cl)c2)cc1/C=C/c1ccc(Cl)c(Cl)c1 [NSC-636819]
- doses at which the increase in DSBs was observed ([5]; HCT116 IDH-WT cells): 12.5 to 50 µM
- DSBs (comet tail moment) in HCT116 IDH-WT cells ([5]; NSC-636819 treatment, HCT116 IDH-WT): dose-dependent increase in elevated DSBs, which approached the levels seen in untreated HCT116 IDH-mutant cells
- comet tail moments in HCT116 IDH-mutant cells ([5]; NSC-636819 treatment, HCT116 IDH-mutant): did not further increase comet tail moments

Compound: Cn1ncnc1[C@H]1c2n[nH]c(=O)c3cc(F)cc(c23)N[C@@H]1c1ccc(F)cc1 [BMN-673]
- decrease in IC50 in R132H mutants versus wild-type ([1]; FIG. 2A, BMN-673 dose response, 96 hours after addition of drug): four-fold decrease in IC50
- increase in sensitivity of IDH1-R132H versus wild-type astrocytes ([6]; at 10 nM BMN-673): ten-fold increase in sensitivity
- decrease in cell survival of IDH1-mutant compared to WT cells ([6]; clonogenic survival, dose of 10 nM): 10 fold
- difference in IC50 between wild-type and IDH1-R132H heterozygous HCT116 ([3]; FIG. 5D): nearly eight-fold difference in IC50
- difference in cell viability between wild-type and IDH1-R132H heterozygous HCT116 [7]: roughly ten-fold difference in cell viability
- tumor growth in IDH1-WT tumors ([8]; HCT116 IDH1-WT xenografts): minimal effects
- tumor growth in IDH1-mutant tumors ([8]; HCT116 IDH1-mutant xenografts): significant growth delay
